# Laboratory results taken from US20260158017A1, “KIF18A INHIBITOR” (WIGEN BIOMEDICINE TECHNOLOGY (SHANGHAI) CO., LTD., priority 2021, published 2026).
# Molecular target: T1, Recombinant human KIF18A (1-467His-tagged) protein (Homo sapiens, UniProt Q8NI77)
# T1 construct: Recombinant human KIF18A (1-467His-tagged) protein; His; made in house
# Experiment: KIF18A enzyme assay (microtubule-stimulated ATPase activity, ADP-Glo)
# Type: biochemical
# Conditions: 30 nM KIF18A, 75 μM ATP, 30 μg/mL pig microtubules; read-out: Inhibitory activity against KIF18A IC50
# Outline: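 Buffer 15 mM Tris pH 7.5, 10 mM MgCl2, 0.01% Pluronic F-68, 1 μM paclitaxel, 30 μg/mL pig microtubules; reactions at room temperature. IC50 from inhibition relative to DMSO.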
# T1 sequence (Q8NI77 1-467): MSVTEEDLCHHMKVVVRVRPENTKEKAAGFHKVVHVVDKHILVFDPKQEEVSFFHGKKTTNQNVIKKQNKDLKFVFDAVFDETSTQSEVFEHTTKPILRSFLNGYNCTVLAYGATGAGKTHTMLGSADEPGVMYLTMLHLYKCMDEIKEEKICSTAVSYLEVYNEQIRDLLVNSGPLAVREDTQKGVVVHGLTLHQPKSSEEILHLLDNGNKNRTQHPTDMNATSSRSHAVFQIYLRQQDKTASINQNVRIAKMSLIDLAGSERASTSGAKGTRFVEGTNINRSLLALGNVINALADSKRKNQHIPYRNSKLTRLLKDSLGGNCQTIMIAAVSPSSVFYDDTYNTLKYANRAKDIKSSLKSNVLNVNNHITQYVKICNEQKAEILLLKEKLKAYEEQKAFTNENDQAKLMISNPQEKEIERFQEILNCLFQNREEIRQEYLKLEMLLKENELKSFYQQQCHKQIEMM
# T1 sequence (P02550 whole entry partner): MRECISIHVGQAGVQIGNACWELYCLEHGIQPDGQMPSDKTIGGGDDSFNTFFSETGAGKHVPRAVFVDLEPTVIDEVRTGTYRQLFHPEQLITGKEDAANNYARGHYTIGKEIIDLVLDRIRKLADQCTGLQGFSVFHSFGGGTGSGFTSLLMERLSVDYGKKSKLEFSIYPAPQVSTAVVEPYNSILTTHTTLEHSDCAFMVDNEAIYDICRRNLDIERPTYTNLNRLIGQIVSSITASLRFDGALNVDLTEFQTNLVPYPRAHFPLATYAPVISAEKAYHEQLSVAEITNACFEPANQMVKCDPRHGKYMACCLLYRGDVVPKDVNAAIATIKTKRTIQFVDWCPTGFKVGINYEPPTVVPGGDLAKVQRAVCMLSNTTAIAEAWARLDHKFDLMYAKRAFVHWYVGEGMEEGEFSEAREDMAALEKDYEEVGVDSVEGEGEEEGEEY
# T1 sequence (P02554 whole entry partner): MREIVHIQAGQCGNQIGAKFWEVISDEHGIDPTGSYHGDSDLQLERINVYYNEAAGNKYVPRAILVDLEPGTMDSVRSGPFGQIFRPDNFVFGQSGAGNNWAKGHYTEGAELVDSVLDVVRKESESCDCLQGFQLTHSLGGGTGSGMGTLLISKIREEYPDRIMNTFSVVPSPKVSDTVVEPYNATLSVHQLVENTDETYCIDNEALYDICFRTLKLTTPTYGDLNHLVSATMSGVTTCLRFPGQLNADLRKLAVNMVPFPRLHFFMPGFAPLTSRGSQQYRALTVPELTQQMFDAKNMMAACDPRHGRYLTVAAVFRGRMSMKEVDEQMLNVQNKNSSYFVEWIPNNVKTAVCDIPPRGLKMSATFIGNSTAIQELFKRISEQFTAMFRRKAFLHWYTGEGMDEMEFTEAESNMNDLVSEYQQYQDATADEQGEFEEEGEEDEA
row,Structure (SMILES),IC50
1,O=C(Nc1cnc(NS(=O)(=O)CCO)cc1N1CCC2(CC1)CC2)c1ccc([N+](=O)[O-])c(N2CC3CC3C2)n1 (stereo not shown) [Compound 234],≤ 100 nM
2,CC(C)(CO)Nc1nc(C(=O)Nc2cnc(NS(=O)(=O)CCO)cc2N2CCC3(CC2)CC3)ccc1[N+](=O)[O-] [Compound 235],≤ 100 nM
3,O=C(Nc1cnc(NS(=O)(=O)CCO)cc1N1CCC2(CC1)CC2)c1ccc([N+](=O)[O-])c(N2CCOCC2)n1 [Compound 236],≤ 100 nM
4,C[C@@H](CO)S(=O)(=O)Nc1cc(N2CCC3(CC2)CC3)c(NC(=O)c2ccc([N+](=O)[O-])c(N3CCC(F)(F)CC3)n2)cn1 [Compound 237],≤ 100 nM
5,C[C@H](CO)S(=O)(=O)Nc1cc(N2CCC3(CC2)CC3)c(NC(=O)c2ccc([N+](=O)[O-])c(N3CCC(F)(F)CC3)n2)cn1 [Compound 238],≤ 100 nM
6,C[C@@H]1CN(c2nc(C(=O)Nc3cnc(NS(=O)(=O)[C@@H](C)CO)cc3N3CCC4(CC3)CC4)ccc2[N+](=O)[O-])CCO1 [Compound 239],≤ 100 nM
7,C[C@@H]1CN(c2nc(C(=O)Nc3cnc(NS(=O)(=O)[C@H](C)CO)cc3N3CCC4(CC3)CC4)ccc2[N+](=O)[O-])CCO1 [Compound 240],≤ 100 nM
8,O=C(Nc1cnc(S(=O)(=O)NCCO)cc1N1CCC2(CC1)CC2)c1ccc([N+](=O)[O-])c(N2CCC(F)(F)CC2)n1 [Compound 241],100 to 500 nM
9,C[C@@H]1CN(c2nc(C(=O)Nc3cnc(S(=O)(=O)NCCO)cc3N3CCC4(CC3)CC4)ccc2[N+](=O)[O-])CCO1 [Compound 242],100 to 500 nM
10,C[C@H]1CN(c2nc(C(=O)Nc3cnc(S(=O)(=O)NCCO)cc3N3CCC4(CC3)CC4)ccc2[N+](=O)[O-])CCO1 [Compound 243],100 to 500 nM
11,O=C(Nc1cnc(S(=O)(=O)NCCO)cc1N1CCC2(CC1)CC2)c1ccc([N+](=O)[O-])c(N2CC(F)(F)C2)n1 [Compound 244],100 to 500 nM
12,O=C(Nc1cnc(S(=O)(=O)NCCO)cc1N1CCC2(CC1)CC2)c1ccc([N+](=O)[O-])c(OCCC(F)(F)F)n1 [Compound 245],100 to 500 nM
13,O=C(Nc1cnc(S(=O)(=O)NCCO)cc1N1CCC2(CC1)CC2)c1ccc([N+](=O)[O-])c(OC2CCC2)n1 [Compound 247],100 to 500 nM
14,CC1(F)CCN(c2nc(C(=O)Nc3cnc(S(=O)(=O)NCCO)cc3N3CCC4(CC3)CC4)ccc2[N+](=O)[O-])C1 (stereo not shown) [Compound 248],100 to 500 nM
15,O=C(Nc1cnc(S(=O)(=O)NCCO)cc1N1CCC2(CC1)CC2)c1ccc([N+](=O)[O-])c(N2CCC(F)CC2)n1 [Compound 249],100 to 500 nM
16,O=C(Nc1cnc(S(=O)(=O)NCCO)cc1N1CCC2(CC1)CC2)c1ccc([N+](=O)[O-])c(N2CC3CC3C2)n1 (stereo not shown) [Compound 250],100 to 500 nM
17,CC(C)(CO)Nc1nc(C(=O)Nc2cnc(S(=O)(=O)NCCO)cc2N2CCC3(CC2)CC3)ccc1[N+](=O)[O-] [Compound 251],100 to 500 nM
18,O=C(Nc1cnc(S(=O)(=O)NCCO)cc1N1CCC2(CC1)CC2)c1ccc([N+](=O)[O-])c(N2CCOCC2)n1 [Compound 252],100 to 500 nM
19,C[C@@H](CO)NS(=O)(=O)c1cc(N2CCC3(CC2)CC3)c(NC(=O)c2ccc([N+](=O)[O-])c(N3CCC(F)(F)CC3)n2)cn1 [Compound 253],100 to 500 nM
20,C[C@H](CO)NS(=O)(=O)c1cc(N2CCC3(CC2)CC3)c(NC(=O)c2ccc([N+](=O)[O-])c(N3CCC(F)(F)CC3)n2)cn1 [Compound 254],100 to 500 nM
21,C[C@@H]1CN(c2nc(C(=O)Nc3cnc(S(=O)(=O)N[C@@H](C)CO)cc3N3CCC4(CC3)CC4)ccc2[N+](=O)[O-])CCO1 [Compound 255],100 to 500 nM
22,C[C@H](CO)NS(=O)(=O)c1cc(N2CCC3(CC2)CC3)c(NC(=O)c2ccc([N+](=O)[O-])c(N3CCO[C@H](C)C3)n2)cn1 [Compound 256],100 to 500 nM

# Second part, the compound after the results:
row,IC50,Structure (SMILES)
1,≤ 100 nM,COc1ccc(NC(=O)c2ccc(NS(=O)(=O)CCO)cc2N2CCC3(CC2)CC3)nc1N1CCC(C)(F)C1 (stereo not shown) [Compound 264]
2,≤ 100 nM,COc1ccc(NC(=O)c2ccc(NS(=O)(=O)CCO)cc2N2CCC3(CC2)CC3)nc1N1CCC(F)CC1 [Compound 265]
3,≤ 100 nM,COc1ccc(NC(=O)c2ccc(NS(=O)(=O)CCO)cc2N2CCC3(CC2)CC3)nc1N1CC2CC2C1 (stereo not shown) [Compound 266]
4,≤ 100 nM,COc1ccc(NC(=O)c2ccc(NS(=O)(=O)CCO)cc2N2CCC3(CC2)CC3)nc1NC(C)(C)CO [Compound 267]
5,≤ 100 nM,COc1ccc(NC(=O)c2ccc(NS(=O)(=O)CCO)cc2N2CCC3(CC2)CC3)nc1N1CCOCC1 [Compound 268]
6,≤ 100 nM,COc1ccc(NC(=O)c2ccc(NS(=O)(=O)[C@@H](C)CO)cc2N2CCC3(CC2)CC3)nc1N1CCC(F)(F)CC1 [Compound 269]
7,≤ 100 nM,COc1ccc(NC(=O)c2ccc(NS(=O)(=O)[C@H](C)CO)cc2N2CCC3(CC2)CC3)nc1N1CCC(F)(F)CC1 [Compound 270]
8,≤ 100 nM,COc1ccc(NC(=O)c2ccc(NS(=O)(=O)[C@@H](C)CO)cc2N2CCC3(CC2)CC3)nc1N1CCO[C@H](C)C1 [Compound 271]
9,≤ 100 nM,COc1ccc(NC(=O)c2ccc(NS(=O)(=O)[C@H](C)CO)cc2N2CCC3(CC2)CC3)nc1N1CCO[C@H](C)C1 [Compound 272]
10,≤ 100 nM,COc1ccc(NC(=O)c2ccc(S(=O)(=O)NCCO)cc2N2CCC3(CC2)CC3)nc1N1CCO[C@H](C)C1 [Compound 274]
11,≤ 100 nM,COc1ccc(NC(=O)c2ccc(S(=O)(=O)NCCO)cc2N2CCC3(CC2)CC3)nc1N1CCO[C@@H](C)C1 [Compound 275]
12,≤ 100 nM,COc1ccc(NC(=O)c2ccc(S(=O)(=O)NCCO)cc2N2CCC3(CC2)CC3)nc1N1CC(F)(F)C1 [Compound 276]
13,≤ 100 nM,COc1ccc(NC(=O)c2ccc(S(=O)(=O)NCCO)cc2N2CCC3(CC2)CC3)nc1OCCC(F)(F)F [Compound 277]
14,≤ 100 nM,COc1ccc(NC(=O)c2ccc(S(=O)(=O)NCCO)cc2N2CCC3(CC2)CC3)nc1N1CCC2(CC2)C1 [Compound 278]
15,≤ 100 nM,COc1ccc(NC(=O)c2ccc(S(=O)(=O)NCCO)cc2N2CCC3(CC2)CC3)nc1OC1CCC1 [Compound 279]
16,≤ 100 nM,COc1ccc(NC(=O)c2ccc(S(=O)(=O)NCCO)cc2N2CCC3(CC2)CC3)nc1N1CCC(C)(F)C1 (stereo not shown) [Compound 280]
17,≤ 100 nM,COc1ccc(NC(=O)c2ccc(S(=O)(=O)NCCO)cc2N2CCC3(CC2)CC3)nc1N1CCC(F)CC1 [Compound 281]
18,≤ 100 nM,COc1ccc(NC(=O)c2ccc(S(=O)(=O)NCCO)cc2N2CCC3(CC2)CC3)nc1N1CC2CC2C1 (stereo not shown) [Compound 282]
19,≤ 100 nM,COc1ccc(NC(=O)c2ccc(S(=O)(=O)NCCO)cc2N2CCC3(CC2)CC3)nc1NC(C)(C)CO [Compound 283]
20,≤ 100 nM,COc1ccc(NC(=O)c2ccc(S(=O)(=O)NCCO)cc2N2CCC3(CC2)CC3)nc1N1CCOCC1 [Compound 284]
21,≤ 100 nM,COc1ccc(NC(=O)c2ccc(S(=O)(=O)N[C@@H](C)CO)cc2N2CCC3(CC2)CC3)nc1N1CCC(F)(F)CC1 [Compound 285]
22,≤ 100 nM,COc1ccc(NC(=O)c2ccc(S(=O)(=O)N[C@H](C)CO)cc2N2CCC3(CC2)CC3)nc1N1CCC(F)(F)CC1 [Compound 286]
23,≤ 100 nM,COc1ccc(NC(=O)c2ccc(S(=O)(=O)N[C@@H](C)CO)cc2N2CCC3(CC2)CC3)nc1N1CCO[C@H](C)C1 [Compound 287]
24,≤ 100 nM,COc1ccc(NC(=O)c2ccc(S(=O)(=O)N[C@H](C)CO)cc2N2CCC3(CC2)CC3)nc1N1CCO[C@H](C)C1 [Compound 288]
